Experimental data as given in patent US20080317805A1, “LOCALLY ADMINISTRATED LOW DOSES OF CORTICOSTEROIDS” (priority 2007, published 2008).
Entries after “also recorded” stand apart in the source; their conditions may differ.

How the values were obtained:
[1] = system: rat chronic constriction injury (CCI) model; assay: Mechanical allodynia (von Frey 50% paw withdrawal threshold), systemically administered fluocinolone, rat CCI model; type: in vivo
Method: (§1) The purpose of this study is to evaluate the efficacy of fluocinolone acetonide (Sigma Cat# F8880-25MG; Sigma Aldrich, St. Louis, Mo.), a potent corticosteroid, to reduce neuropathic pain in an animal model. This animal model involves pain-associated behaviors in male Wistar rats (300-326 g) following chronic constriction injury (CCI) induced by a procedure similar to that described by Bennett and Xie (1988). Under 2% isoflurane anesthesia, the rat's common sciatic nerve is exposed and freed from adherent tissue at mid-thigh by separating the muscle (biceps femoris) by blunt dissection. Four loose ligatures are placed 1 mm apart, using chromic gut (4-0 absorbable suture, Jorgensen Laboratories, Inc. Loveland, Colo.).
(§2) After CCI induction, each group (n=7) receive treatment via systemic injection. Vehicle control animals (Group 1) receive 1× phosphate buffered solution (PBS) intraperitoneally (IP) every three days, beginning the day of surgery (Day 0), etanercept (Group 2; 3 mg/kg) is administered IP every 3 days beginning Day 0. Animals in treatment Groups 3, 4 and 5 receive fluocinolone (0.5, 5, or 25 μg/kg) subcutaneously (SC) every day beginning Day 0.
(§3) Mechanical allodynia is measured using von Frey monofilament test (Stoelting, Wood Dale, Ill.). The plantar surface of the CCI paw of each animal is tested as described by Chaplan et al. (1994). Each animal is placed in a suspended clear plastic chamber with a wire mesh bottom. Prior to testing, each animal is acclimated for 15 minutes. The 50% paw withdrawal threshold response is determined by sequentially increasing or decreasing the stimulus strength according to the “up-down method” of Dixon (1980).
Testing begins with a filament with a buckling weight of 2.0 g and continued through a series of filaments applied in sequence, up to about 15 g. Each filament is applied with enough pressure to cause a buckle effect. The absence of a paw lifting/withdrawal response after 5 seconds prompts the use of the filament to the next higher weight. Paw withdrawal, indicates a positive response. The testing continues for four additional measurements and is used to calculate the response threshold. Four consecutive positive responses receive a score of 0.25 g, and five consecutive negative responses (i.e., no paw withdrawal) receives a score of 15 g. The mechanical paw withdrawal threshold of each animal is measured one day prior to surgery (per-surgical baseline) and on Days 8, 15, and 22.
(§4) The 50% paw withdrawal threshold is calculated (PWT; Luo and Calcutt, 2002, Chaplan et al. 1994) using the formula 10 (Xf+?d)/10,000, where Xf is the final von Frey filament used (log units), ? is a value that analyzes the response pattern (taken from the table published by Chaplan at al., 1994), and d is the mean difference between stimuli (log units). Data is analyzed using one-way ANOVA on each test.

[2] = system: rat chronic constriction injury (CCI) model; assay: Thermal hyperalgesia (paw withdrawal latency), systemically administered fluocinolone, rat CCI model; type: in vivo
Method: as §1, §2
(§5) Thermal hyperalgesia is measured using a plantar analgesia instrument (Stoelting, Wood Dale, Ill.). Prior to testing, each animal is placed on the plantar test apparatus, a clear plastic chamber, and is allowed to rest/acclimate for 15 minutes. A radiant (heat) beam stimulus is applied to the CCI paw of each animal. After paw withdrawal, an automated control interrupts both the stimulus and the timer. The heat source device is set at intensity 50, and a maximal cut-off at 15 seconds is set to prevent tissue damage. Thermal hyperalgesia paw withdrawal latency response of the injured site (right hind paw) of each animal is measured 2 days prior to CCI surgery (pre-injury baseline) on Days 7, 14, and 21 after surgery. Data from each test is analyzed by one-way ANOVA.

[3] = system: rat chronic constriction injury (CCI) model; assay: Von Frey mechanical threshold, local pump delivery, rat CCI model; type: in vivo; conditions: 0.0032, 0.016, 0.08 ng/hour by pump, each day tested; not statistically significant
Method: as §3
Testing begins with a filament with a buckling weight of 2.0 g and continued through a series of filaments applied in sequence, up to about 15 g. Each filament is applied with enough pressure to cause a buckle effect. The absence of a paw lifting/withdrawal response after 5 seconds prompts the use of the filament to the next higher weight. […] The mechanical paw withdrawal threshold of each animal is measured one day prior to surgery (per-surgical baseline) and on Days 8, 15, and 22.
as §4, with “test. […]” for “test.”

[4] = system: rat chronic constriction injury (CCI) model; assay: Thermal paw withdrawal latency, local pump delivery, rat CCI model; type: in vivo; conditions: 0.0032, 0.016, and 0.08 ng/hour by osmotic mini-pump, perineural; p<0.05
Method: as §5
Following the above experiments, the efficacy of locally administered, low dose of fluocinolone acetonide (Sigma Cat# F8880-25MG; Lot# 043K1167, Sigma Aldrich) and dexamethasone (Sigma Aldrich) is examined in the same CCI rat model. […]
Fluocinolone is administered at doses of 0.0032 ng/hour (0.02304 ng/kg/day), 0.016 ng/hour (0.1152 ng/kg/day), and 0.08 ng/hour (0.576 ng/kg/day). […] Thermal hyperalgesia, induced and measured as described above, is measured on Days −2, 7, 14, and 21. Mechanical allodynia, induced and measured as described above, is measured on Days −1, 8, 15, and 22.

[5] = Body weight gain during daily SC fluocinolone in CCI rats; type: in vivo, rat; conditions: for body weight difference to vehicle controls: 25 μg/kg SC daily
Method: as §1, §2

Question: Which results are given for CC1(C)O[C@@H]2C[C@H]3[C@@H]4C[C@H](F)C5=CC(=O)C=C[C@]5(C)[C@@]4(F)[C@@H](O)C[C@]3(C)[C@]2(C(=O)CO)O1 [Fluocinolone, fluocinolone acetonide]?
Answer: Von Frey Filament "Allodynia" Latencies as Percent of Baseline, Mean ([1]; 0.5 μg/kg every day, Day 8): 45.2% of Baseline; Von Frey Filament "Allodynia" Latencies as Percent of Baseline, Mean ([1]; 0.5 μg/kg every day, Day 15): 47.1% of Baseline; Von Frey Filament "Allodynia" Latencies as Percent of Baseline, Mean ([1]; 0.5 μg/kg every day, Day 22): 66.2% of Baseline; Von Frey Filament "Allodynia" Latencies as Percent of Baseline, Mean ([1]; 5 μg/kg every day, Day 8): 54.8% of Baseline; Von Frey Filament "Allodynia" Latencies as Percent of Baseline, Mean ([1]; 5 μg/kg every day, Day 15): 57.5% of Baseline; Von Frey Filament "Allodynia" Latencies as Percent of Baseline, Mean ([1]; 5 μg/kg every day, Day 22): 55.2% of Baseline; Von Frey Filament "Allodynia" Latencies as Percent of Baseline, Mean ([1]; 25 μg/kg every day, Day 8): 76.3% of Baseline; Von Frey Filament "Allodynia" Latencies as Percent of Baseline, Mean ([1]; 25 μg/kg every day, Day 15): 68.9% of Baseline; Von Frey Filament "Allodynia" Latencies as Percent of Baseline, Mean ([1]; 25 μg/kg every day, Day 22): 70.3% of Baseline; mechanical allodynia compared with etanercept ([1]; 0.5, 5, 25 μg/kg/day, not statistically significant): tend to improve mechanical allodynia over etanercept; also recorded: does not reveal any significant differences; mechanical allodynia compared with vehicle controls ([1]; 0.5, 5, or 25 μg/kg/day SC, overall ANOVA): significantly improves (overall ANOVA) mechanical allodynia; Thermal Paw Withdrawal Latencies as Percent Baseline, Mean ([2]; 0.5 μg/kg every day, Day 7): 71.6 Percent Baseline; Thermal Paw Withdrawal Latencies as Percent Baseline, Mean ([2]; 0.5 μg/kg every day, Day 14): 70.8 Percent Baseline; Thermal Paw Withdrawal Latencies as Percent Baseline, Mean ([2]; 0.5 μg/kg every day, Day 21): 63.1 Percent Baseline; thermal latency, t-test compared to etanercept ([2]; 0.5 μg/kg, Day 7, p<0.05): significant increase in latency on Day 7; thermal latency, t-test compared to etanercept ([2]; 0.5 μg/kg, Days 14 and 21, n.s.): not on Days 14 and 21; thermal latencies compared with etanercept ([2]; 0.5 μg/kg/day, only statistically significant on Day 7): tends to improve thermal latencies over etanercept; Thermal Paw Withdrawal Latencies as Percent Baseline, Mean ([2]; 5 μg/kg every day, Day 7): 79.7 Percent Baseline; Thermal Paw Withdrawal Latencies as Percent Baseline, Mean ([2]; 5 μg/kg every day, Day 14): 83.8 Percent Baseline; Thermal Paw Withdrawal Latencies as Percent Baseline, Mean ([2]; 5 μg/kg every day, Day 21): 80.2 Percent Baseline; thermal latency, t-test compared to etanercept ([2]; 5 μg/kg, Days 7, 14, 21, p<0.05): significant increase in latency on all testing days; Thermal Paw Withdrawal Latencies as Percent Baseline, Mean ([2]; 25 μg/kg every day, Day 7): 67.4 Percent Baseline; Thermal Paw Withdrawal Latencies as Percent Baseline, Mean ([2]; 25 μg/kg every day, Day 14): 80.9 Percent Baseline; Thermal Paw Withdrawal Latencies as Percent Baseline, Mean ([2]; 25 μg/kg every day, Day 21): 80.0 Percent Baseline; thermal latency relative to vehicle controls ([2]; 0.5, 5 and 25 μg/kg/day SC, Days 7, 14, 21, p<0.05): increase in thermal latency relative to vehicle controls; also recorded: significantly increases the paw withdrawal latency period; also recorded: significant increase in thermal latency; thermal hyperalgesia compared with etanercept ([2]; 5 and 25 μg/kg/day, all days tested, etanercept 3 mg/kg IP every 3 days, ANOVA p<0.05): improves thermal hyperalgesia significantly greater than etanercept; thermal latency, 5 μg/kg dose compared with 25 μg/kg dose ([2]; Day 7, Fisher LSD, p<0.05): significantly more effective than 25 μg/kg dose; thermal latency, 5 and 25 μg/kg doses compared with 0.5 μg/kg dose ([2]; Days 14 and 21, Fisher LSD, p<0.05): significantly more effective than the 0.5 μg/kg dose; mechanical threshold (von Frey) [3]: increases in the mechanical threshold; thermal paw withdrawal latency compared to PBS [4]: increases in the thermal paw withdrawal latency tests compared to PBS; body weight gain compared with vehicle controls ([5]; 25 μg/kg SC daily for 21 days): significant decrease in body weight gain; body weight difference to vehicle controls ([5]; Day 5): ~10 g; body weight difference to vehicle controls ([5]; by Day 22): ~50 g; body weight gain ([5]; 0.5 or 5 μg/kg SC daily for 21 days): does not have any effect on body weight gain
